Where two headings read alike, the source gives them in different places.
Assays:
P. aeruginosa isolates = conditions: initial sputum cultures, CF patients, 1993; cited from earlier work
P. aeruginosa [1] = conditions: cited from earlier work
Gram-negative bacteria = conditions: cited from earlier work
[2] = purulent sputum; cited from earlier work
P. aeruginosa [3] = assay: Placebo-controlled clinical study in bronchiectasis: sputum P. aeruginosa density and microbiological response; type: in vivo, Pseudomonas aeruginosa
Method: A placebo-controlled, double-blind, randomized study was conducted to evaluate the microbiological efficacy and safety of inhaled tobramycin for treatment of patients with bronchiectasis and P. aeruginosa. […] The change in P. aeruginosa density in sputum was measured at Weeks 2, 4, and 6 (2 weeks post-treatment). Clinicians assessed patients' general medical condition at Week 6. Safety parameters included adverse events, serum chemistry, and airway reactivity. […] At Week 6, P. aeruginosa was eradicated in 35% of TSI-treated patients but was detected in all placebo patients. […] Few patients withdrew due to adverse events. TSI holds promise as a therapy for patients with bronchiectasis. The study was conducted as follows: […] Patients were excluded if they had CF, a diagnosis of allergic bronchopulmonary aspergillosis, an acute pulmonary process requiring medical intervention as indicated by a new infiltrate on a chest radiograph, significant recent hemoptysis, or had received antibiotics within two weeks of the screening visit. Eligible patients were randomly assigned in blocks of two to parallel groups at each study center to receive either TSI or placebo. […] At all study visits, vital signs were measured, adverse events were recorded, and a sputum sample was collected for quantitative microbiology and susceptibility testing. […] At Week 4, airway reactivity was again monitored, a medical exam was performed, and laboratory tests that were performed at screening were repeated. […] The primary efficacy endpoint was the change in P. aeruginosa density (expressed as log10 CFU/g sputum) from baseline to Week 4. […] (2) an investigator's assessment of change in the patient's general medical condition (“improved” or “not improved”) throughout the study (recorded at Week 6); (3) the percent change in FEV1% predicted and in forced vital capacity (FVC) % predicted from Week 0 to Week 4. […] P. aeruginosa was considered eradicated if it was not detected at Week 6 or if the patient was unable to produce a sputum sample at Week 6 and P. aeruginosa was not isolated at Week 4. […]

P. aeruginosa [4] = conditions: CF patients, 300 mg inhaled twice daily, cited from earlier work
[5] = 71 CF patients, 600 mg tid aerosolized

## NC[C@H]1O[C@H](O[C@H]2[C@H](O)[C@@H](O[C@H]3O[C@H](CO)[C@@H](O)[C@H](N)[C@H]3O)[C@H](N)C[C@@H]2N)[C@H](N)C[C@@H]1O [tobramycin]
P. aeruginosa isolates
  isolates with MICs <16 μg/mL: 90%
  isolates with MICs ≦128 μg/mL: 98%
P. aeruginosa [1]; [5]
  spirometry: improved spirometry
  sputum density of P. aeruginosa: significant reduction
P. aeruginosa [1]; versus placebo
  emergence of P. aeruginosa strains highly resistant to tobramycin (MIC >128 μg/mL): comparable in the placebo and treatment groups
Gram-negative bacteria
  concentrations effective in inhibiting the growth of many Gram-negative bacteria: < 4 µg/mL
[2]
  higher concentrations required in the sputum to overcome inhibitory effects: 5-10 ×
P. aeruginosa [3]; bronchiectasis versus cystic fibrosis
  antimicrobial efficacy relative to cystic fibrosis patients: greater than 10,000 fold
P. aeruginosa [3]; in some patients, endobronchial administration
  factor by which colony forming units (CFU) of P. aeruginosa are decreased: ≥ 10^6
P. aeruginosa [3]; summary statement
  bronchiectasis patients with complete eradication: 20%
P. aeruginosa [4]; 28 days on/28 days off, Week 0 to Week 20
  average decrease in P. aeruginosa density: 0.8 log10
P. aeruginosa [4]; Week 0 to Week 4
  average decrease in P. aeruginosa density: 1.9 log10

— patent publication US6387886B1, “Method for the treatment of severe chronic bronchitis (bronchietasis) with an aerosolized antibiotic” (Chiron Corporation, priority 1998, dated 2002)
